Measured values from the supplement of paper PMC10307832.

Key:
Assay in all cases: relative viability (nuclei count vs DMSO), 5 days (fraction); higher = more cells survive
[1] = compound: C1CCC(CC1)N(CCNCCC2=C3C(=C(C=C2)O)NC(=O)CO3)C(=O)CCNCCC4=CC(=C(C=C4)Cl)Cl [AZ505] + Cc1cc(Nc2cc(N3CCN(C)CC3)nc(Sc3ccc(NC(=O)C4CC4)cc3)n2)n[nH]1 [Tozasertib] (partner 0.1 µM)
Outline: (§1)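 Five library-drug doses in √10 steps were combined with a fixed anchor-drug dose, or a single drug was given alone, by pin tool to lung cancer cell lines in 1536-well plates the day after seeding. Nuclei were stained and counted after 5 days. Relative viability is the nuclei count in treated wells over that in vehicle wells, taken as the median of duplicate plates.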

[2] = compound: C1CCC(CC1)N(CCNCCC2=C3C(=C(C=C2)O)NC(=O)CO3)C(=O)CCNCCC4=CC(=C(C=C4)Cl)Cl [AZ505] + NC(=O)Nc1cc(-c2cccc(F)c2)sc1C(=O)N[C@H]1CCCNC1 [AZD7762] (partner 0.2 µM)
Outline: as §1

[3] = compound: C1CCC(CC1)N(CCNCCC2=C3C(=C(C=C2)O)NC(=O)CO3)C(=O)CCNCCC4=CC(=C(C=C4)Cl)Cl [AZ505] + COc1cccc2cc(-c3nc([C@H]4CC[C@H](C(=O)O)CC4)n4ncnc(N)c34)[nH]c12 [OSI-027] (partner 0.5 µM)
Outline: as §1

[4] = compound: Cn1c(=O)n(-c2ccc(C(C)(C)C#N)cc2)c2c3cc(-c4cnc5ccccc5c4)ccc3ncc21 [Dactolisib] + Cc1nc(NC(=O)N2CCC[C@H]2C(N)=O)sc1-c1ccnc(C(C)(C)C(F)(F)F)c1 [Alpelisib] (partner 2 µM)
Outline: as §1

Cell Line	relative viability ([1]; first compound 0.08 µM)	relative viability ([1]; first compound 0.253 µM)	relative viability ([1]; first compound 0.8 µM)	relative viability ([1]; first compound 2.53 µM)	relative viability ([1]; first compound 8 µM)	relative viability ([2]; first compound 0.08 µM)	relative viability ([2]; first compound 0.253 µM)	relative viability ([2]; first compound 0.8 µM)	relative viability ([2]; first compound 2.53 µM)	relative viability ([2]; first compound 8 µM)	relative viability ([3]; first compound 0.08 µM)	relative viability ([3]; first compound 0.253 µM)	relative viability ([3]; first compound 0.8 µM)	relative viability ([3]; first compound 2.53 µM)	relative viability ([3]; first compound 8 µM)	relative viability ([4]; first compound 0.002 µM)	relative viability ([4]; first compound 0.006325 µM)	relative viability ([4]; first compound 0.02 µM)	relative viability ([4]; first compound 0.06325 µM)	relative viability ([4]; first compound 0.2 µM)
NCI-H1993	0.611	0.529	0.58	0.539	0.529	0.629	0.722	0.609	0.854	0.943	0.568	0.572	0.51	0.529	0.556	0.711	0.561	0.754	0.694	0.684
NCI-H1734	0.259	0.276	0.243	0.219	0.215	0.519	0.333	0.526	0.494	0.576	0.515	0.539	0.573	0.559	0.576	0.686	0.582	0.586	0.361	0.233
HOP-62	0.386	0.436	0.385	0.427	0.383	0.43	0.328	0.682	0.63	0.669	0.708	0.838	0.801	0.895	0.826	1.19	1.09	0.876	0.468	0.323
LOU-NH91	0.654	0.696	0.577	0.591	0.625	0.734	0.737	0.744	0.775	0.781	0.634	0.674	0.638	0.672	0.656	0.623	0.665	0.669	0.496	0.471
PC-14	0.549	0.594	0.586	0.509	0.554	0.366	0.317	0.391	0.354	0.372	0.72	0.835	0.666	0.765	0.786	0.946	0.932	0.887	0.407	0.252
NCI-H1437	0.396	0.424	0.382	0.391	0.403	1.07	1.17	1.08	1.14	1.17	0.864	0.963	0.911	0.823	0.872	1	0.991	0.918	0.836	0.81
NCI-H460	0.481	0.0927	0.551	0.204	0.299	0.701	0.522	0.623	0.483	0.621	0.636	0.71	0.57	0.57	0.845	0.723	0.352	0.35	0.0712	0.0542
NCI-H1666	0.629	0.613	0.534	0.525	0.584	0.791	0.853	0.844	0.852	0.946	0.779	0.817	0.725	0.93	0.912	1.08	0.83	0.806	0.506	0.402
NCI-H1651	0.65	0.784	0.633	0.725	0.606	0.43	0.412	0.472	0.467	0.48	0.678	0.75	0.725	0.763	0.717	1.11	0.79	0.69	0.461	0.422
NCI-H1755	0.526	0.595	0.602	0.646	0.564	0.348	0.471	0.495	0.421	0.432	0.763	0.73	0.643	0.742	0.691	0.944	0.898	0.872	0.655	0.372
HARA	0.165	0.102	0.0957	0.106	0.0964	0.354		0.33	0.693	0.351	0.269	0.234	0.352	0.345	0.365	1.15	0.78	0.809	0.594	0.206
NCI-H596	0.845	0.894	0.708	0.821	0.726	1.18		1.02	1.04	0.916	0.591	0.517	0.937	0.685	0.847	0.461	0.474	0.386	0.322	0.259
NCI-H23	0.388		0.392	0.402	0.327	0.228	0.146	0.255	0.268	0.157	0.54		0.609	0.71	0.563	0.629	0.607	0.615	0.356	0.303
LCLC-97TM1	0.218	0.196	0.214	0.316	0.302	0.427	0.111	0.301	0.317	0.354	0.389	0.335	0.495	0.395	0.644	0.304	0.218	0.186	0.134	0.151
EPLC-272H		0.392	0.282	0.316	0.25	0.451	0.253	0.433	0.424	0.343		0.251	0.22	0.263	0.283	0.961	0.752	0.779	0.527	0.465
NCI-H1915	0.422	0.447	0.432	0.416	0.399	0.707	0.753	0.7	0.727	0.716	0.549	0.563	0.544	0.416	0.587	1.1	1.06	1.05	0.747	0.519
